Test results published in US20250387391A1, “A SOLUBLE GUANYLAT CYCLASE ACTIVATOR FOR TREATING CHRONIC VASCULAR DYSFUNCTION” (Charité - Universitätsmedizin Berlin, priority 2022, published 2025).
Like-named read-outs stand apart in the source and are kept apart here.

Columns and labels:
[1] = tested on: liver fibrosis in two rat models; conditions: cited from earlier work
[2] = tested on: intraocular pressure; conditions: animal models; cited from earlier work
[3] = tested on: isolated sGC; conditions: cited from earlier work
[4] = tested on: platelet aggregation; conditions: via stimulation of cGMP synthesis; cited from earlier work
[5] = tested on: ZSF1 rat model of type 2 diabetes mellitus (T2DM)-induced nephropathy; conditions: cited from earlier work
[6] = in vivo; cited from earlier work
[7] = tested on: patient with ME/CFS; conditions: single patient, history of Giardia Lamblia infection, ME/CFS for 10 years; cited from earlier work
[8] = tested on: sGC; conditions: cited from earlier work
[9] = tested on: patients with ADHF; conditions: intravenously administered; cited from earlier work
[10] = preclinical species; cited from earlier work
[11] = humans; cited from earlier work
[12] = in vivo; cited from earlier work; remark: listed apart in the source
[13] = tested on: subjects with heart failure with reduced ejection fraction (HfrEF); conditions: initial dose 2.5 mg, titrated to 10 mg at two-week intervals; cited from earlier work
[14] = tested on: post-infectious ME/CFS patients
[15] = tested on: NT-proBNP; conditions: cited from earlier work
[16] = tested on: healthy subjects; conditions: cited from earlier work
[17] = tested on: endothelial dysfunction (ED) models; conditions: preclinical ED models and HF patients; cited from earlier work
[18] = Vericiguat Pool (2.5 mg, 2.5 to 5 mg, 2.5 to 10 mg groups)

For O=C(O)CCCCN(CCc1cc(F)ccc1OCc1ccc(-c2ccc(C(F)(F)F)cc2)cc1)Cc1ccc(C(=O)O)cc1 [BAY 60-2770, 4-({(4-carboxy-butyl)[2-(5-fluoro-2-{[4′-(trifluoromethyl)biphenyl-4-yl]methoxy}phenyl)ethyl]amino}methyl)benzoic acid], the Liver fibrosis [1] is given as “attenuates liver fibrosis”.
In the case of Cc1cc(C2CCN(C(=O)C3CC3)CC2)ccc1NC1CCc2cccc(-c3cccc(-n4ncc(C(=O)O)c4C)n3)c21 (stereo not shown) [MGV354], the Intraocular pressure [2] is given as “significantly lowered intraocular pressure”.
In the case of OCc1ccc(-c2nn(Cc3ccccc3)c3ccccc23)o1 [YC-1], the “Effect on sGC when combined with NO-releasing compounds” value [3] is given as “strong synergistic effect”, the “sGC stimulation after oxidation or removal of the prosthetic heme moiety” value [3] is given as “loss of stimulation” and the Platelet aggregation [4] is given as “inhibiting platelet aggregation”.
For Cc1ccc(OCc2ccc(C(=O)N3CCCCC3)cc2C)c(-c2csc(C3CC4CCC(C3)C4C(=O)O)n2)c1 (stereo not shown) [BI 703704], the In vivo activity [5] is listed as “displaying in vivo activity”.
For COC(=O)N(C)c1c(N)nc(-c2nn(Cc3ccccc3F)c3ncccc23)nc1N [Riociguat], the “Risk of anemia as side effect” value [6] is listed as 7.8% and the “Symptoms of ME/CFS” value [7] is listed as “some improvement in symptoms”.
In the case of [N]=O [NO, nitric oxide], the “Increase of sGC activity” value [8] is listed as “about 200 fold”.
In the case of O=C(O)CCCCN(CCc1ccccc1OCc1ccc(CCc2ccccc2)cc1)Cc1ccc(C(=O)O)cc1 [Cinaciguat], the Hemodynamic effect [9] is listed as “potent unloading of the heart with arterial vasodilation”.
For OC(CNc1nc(-c2cc(-c3ccon3)n(Cc3ccccc3F)n2)ncc1F)(C(F)(F)F)C(F)(F)F [Praliciguat], the Clearance route [10] is given as “mainly hepatic clearance”, the Half-life [10] is given as “long half-life” and the Tissue distribution [10] is given as “extensive tissue distribution”. For the same compound, the Pharmacokinetic half-life [11] was “consistent with QD dosing”.
In the case of Fc1ccccc1Cc1nc(-c2nc(C(F)(F)F)n[nH]2)cn2ccnc12 [CY6463], the “Crossing of the blood-brain barrier” value [12] is given as “readily crosses the blood-brain barrier”.
In the case of COC(=O)Nc1c(N)nc(-c2nn(Cc3ccccc3F)c3ncc(F)cc23)nc1N [Vericiguat], the “Efficacy in terms of cardiovascular mortality and HF hospitalization” value [13] is given as “superior to placebo”, the Cognitive function ([14]; 1st patient) is given as “improved” and the “Sensitivity to light and noise” value ([14]; 1st patient) is given as “less sensitivity to light and noise”. The Fatigue ([14]; 1st patient (ME/CFS triggered by COVID), 5 mg) was “improved”, the “Activity without getting PEM” value ([14]; 1st patient, 5 mg) was “much more activity was possible without getting PEM” and the “Quality of life, according to the patient” value ([14]; 2nd patient) was “significantly improved”. The “Effect of treatment (mainly cognitive)” value ([14]; 2nd patient (postinfectious ME/CFS, Bell of 20), 2.5 mg) was “only a minor positive effect”, the Cognitive ability ([14]; 2nd patient, 5 mg, over a period of a few weeks) was “increase in cognitive ability” and the “Feeling of being sick” value ([14]; 2nd patient, compared to prior to treatment) was “reduced”. For the same compound, the Headaches ([14]; 2nd patient, before medication about 3 days a week) was “almost completely disappeared”, the “Ability for cognitive work without triggering PEM” value ([14]; 2nd patient, increased from 1 h) was “more than 2 hours” and the Headaches ([14]; 3rd patient) was “disappeared”. For the same compound, the Muscle fasciculation ([14]; 3rd patient) was “decreased”, the Sensitivity to noise ([14]; 3rd patient) was “improved” and the Fatigue ([14]; 3rd patient (ME/CFS triggered by COVID), 2 weeks of 5 mg) was “improved”. The Ability to work ([14]; 3rd patient, increased from 1) was 2 to 3 h, the “Drop in blood pressure” value ([14]; human, in vivo) was “no significant drop in blood pressure” and the “Effect on blood pressure” value ([14]; human, in vivo) was “almost no effect on blood pressure”. For the same compound, the Tolerability ([14]; human, in vivo) was “very good”, the “Risk of anemia as side effect” value [6] was 1.9% and the “Difference of Means vs Placebo - log scale, change in log transformed NT-proBNP from baseline to week 12” value ([15]; 1.25 mg) was 0.0151 log [pg/mL]. The “Ratio of Geometric Means vs Placebo - Back Transformed, NT-proBNP baseline to week 12” value (“Ratio of Geometric Means vs Placebo” for short) ([15]; 1.25 mg) was 1.015, the “Reduction in NT-proBNP at 12 weeks compared to placebo” value ([15]; 2.5 mg titrated at two-week intervals to 10 mg, p=0.0483) was “greatest reduction” and the “Difference of Means vs Placebo - log scale, change in log transformed NT-proBNP from baseline to week 12” value ([15]; 2.5 mg) was −0.0396 log [pg/mL]. For the same compound, the “Ratio of Geometric Means vs Placebo” value ([15]; 2.5 mg) was 0.961, the “Difference of Means vs Placebo - log scale, change in log transformed NT-proBNP from baseline to week 12” value ([15]; 2.5 to 5 mg) was −0.0731 log [pg/mL] and the “Ratio of Geometric Means vs Placebo” value ([15]; 2.5 to 5 mg) was 0.930. The “Difference of Means vs Placebo - log scale, change in log transformed NT-proBNP from baseline to week 12” value ([15]; 2.5 to 10 mg) was −0.2494 log [pg/mL], the “Ratio of Geometric Means vs Placebo” value ([15]; 2.5 to 10 mg) was 0.779 and the “Difference of Means vs Placebo - log scale, change in log transformed NT-proBNP from baseline to week 12” value [15, 18] was −0.1220 log [pg/mL]. The “Ratio of Geometric Means vs Placebo” value [15, 18] was 0.885, the “Secondary analysis: reduction of NT-proBNP at 12 weeks” value ([15]; across vericiguat doses) was “dose-response relationship” and the “Primary efficacy endpoint, change from baseline in log-transformed NT-proBNP vs placebo” value ([15]; pooled vericiguat group, 12 weeks) was “not significantly different”. For the same compound, the PK interaction profile ([16]; estimated in in vitro studies, confirmed in healthy subjects) was “low”, the “Severity of most treatment-emergent adverse events” value ([16]; human, in vivo) was “mild-to-moderate severity” and the “Tolerability in clinical studies” value ([16]; human, in vivo) was “well-tolerated”. For the same compound, the Vascular function [17] was “restores vascular function”.
